Reference: ChEMBL document CHEMBL1121776, “Folate antagonists. 18. Synthesis and antimalarial effects of N6-(arylmethyl)-N6-methyl-2,4,6-pteridinetriamines and related N6,N6-disubstituted 2,4,6-pteridinetriamines” (1981)
Values after ≈ are worked out from the molar mass of the structure shown.

Legend:
Type in all cases: functional
Mus musculus [1] = assay: Parenteral antimalarial effect against Plasmodium berghei in mice (Mus musculus) at a dose of 20sc mg/kg
Mus musculus [2] = assay: Parenteral antimalarial effect against Plasmodium berghei in mice (Mus musculus) at a dose of 80 mg/kg subcutaneously; settings: route subcutaneous
Mus musculus [3] = assay: Parenteral antimalarial effect against Plasmodium berghei in mice (Mus musculus) at a dose of 320 subcutaneous mg/kg
Mus musculus [4] = assay: Parenteral antimalarial effect against Plasmodium berghei in mice (Mus musculus) at a dose of 10sc mg/kg
Mus musculus [5] = assay: Parenteral antimalarial effect against Plasmodium berghei in mice (Mus musculus) at a dose of 20 mg/kg subcutaneously; Number of mice (Mus musculus) surviving at 60 days post infection and cured 4/10; settings: route subcutaneous
Mus musculus [6] = assay: Parenteral antimalarial effect against Plasmodium berghei in mice (Mus musculus) at a dose of 160 mg/kg subcutaneously; Number of mice (Mus musculus) surviving at 60 days post infection and cured 5/5; settings: route subcutaneous
Mus musculus [7] = assay: Parenteral antimalarial effect against Plasmodium berghei in mice (Mus musculus) at a dose of 80 subcutaneously mg/kg; Number of mice (Mus musculus) surviving at 60 days post infection and cured 7/10
Mus musculus [8] = assay: Parenteral antimalarial effect against Plasmodium berghei in mice (Mus musculus) at a dose of 40sc mg/kg; Number of mice (Mus musculus) surviving at 60 days post infection and cured 3/5
Mus musculus [9] = assay: Parenteral antimalarial effect against Plasmodium berghei in mice (Mus musculus) at a dose of 40 mg/kg subcutaneously; settings: route subcutaneous
Mus musculus [10] = assay: Parenteral antimalarial effect against Plasmodium berghei in mice (Mus musculus) at a dose of 640 subcutaneously mg/kg
Mus musculus [11] = assay: Parenteral antimalarial effect against Plasmodium berghei in mice (Mus musculus) at a dose of 160 subcutaneously mg/kg
Mus musculus [12] = assay: Parenteral antimalarial effect against Plasmodium berghei in mice (Mus musculus) at a dose of 80 mg/kg subcutaneously; Number of mice (Mus musculus) surviving at 60 days post infection and cured 2/5; settings: route subcutaneous
Mus musculus [13] = assay: Parenteral antimalarial effect against Plasmodium berghei in mice (Mus musculus) at a dose of 320 mg/kg subcutaneously; Number of mice (Mus musculus) surviving at 60 days post infection and cured 3/5; settings: route subcutaneous
Mus musculus [14] = assay: Parenteral antimalarial effect against Plasmodium berghei in mice (Mus musculus) at a dose of 160 mg/kg subcutaneously; Number of mice (Mus musculus) surviving at 60 days post infection and cured 3/5; settings: route subcutaneous
Enterococcus faecalis [15] = assay: In vitro antibacterial effect against Streptococcus faecalis MGH-2
[16] = system: Mycobacterium tuberculosis; assay: In vitro antibacterial effect against Mycobacterium tuberculosis H37Rv by using gradient plate test
Escherichia coli [17] = assay: In vitro antibacterial effect against Escherichia coli Vogel by using gradient plate test
Pseudomonas aeruginosa [18] = assay: In vitro antibacterial effect against Pseudomonas aeruginosa 28 by using gradient plate test
Staphylococcus aureus [19] = assay: In vitro antibacterial effect against Staphylococcus aureus S18713 by using gradient plate test
Shigella sonnei [20] = assay: In vitro antibacterial effect against Shigella sonnei C-10 by using gradient plate test
Staphylococcus aureus [21] = assay: In vitro antibacterial effect against Staphylococcus aureus UC-76 by using gradient plate test
Mus musculus [22] = assay: Parenteral antimalarial effect against Plasmodium berghei in mice (Mus musculus) at a dose of 640 mg/kg subcutaneously; Number of mice (Mus musculus) surviving at 60 days post infection and cured 10/10; settings: route subcutaneous
Mus musculus [23] = assay: Parenteral antimalarial effect against Plasmodium berghei in mice (Mus musculus) at a dose of 160 mg/kg subcutaneously; Number of mice (Mus musculus) surviving at 60 days post infection and cured 10/10; settings: route subcutaneous
Mus musculus [24] = assay: Parenteral antimalarial effect against Plasmodium berghei in mice (Mus musculus) at a dose of 320 subcutaneous mg/kg; Number of mice (Mus musculus) surviving at 60 days post infection and cured 5/5
Mus musculus [25] = assay: Parenteral antimalarial effect against Plasmodium berghei in mice (Mus musculus) at a dose of 20 mg/kg subcutaneously; Number of mice (Mus musculus) surviving at 60 days post infection and cured 2/5; settings: route subcutaneous
Mus musculus [26] = assay: Parenteral antimalarial effect against Plasmodium berghei in mice (Mus musculus) at a dose of 20 mg/kg subcutaneously; Number of mice (Mus musculus) surviving at 60 days post infection and cured 8/15; settings: route subcutaneous
Mus musculus [27] = assay: Parenteral antimalarial effect against Plasmodium berghei in mice (Mus musculus) at a dose of 80 mg/kg subcutaneously; Number of mice (Mus musculus) surviving at 60 days post infection and cured 10/10; settings: route subcutaneous
Escherichia coli [28] = assay: In vitro antibacterial effect against E. c. Vogel by using gradient plate test
Mus musculus [29] = assay: Parenteral antimalarial effect against Plasmodium berghei in mice (Mus musculus) at a dose of 160 mg/kg subcutaneously; Number of mice (Mus musculus) surviving at 60 days post infection and cured 8/10; settings: route subcutaneous
Staphylococcus aureus [30] = assay: In vitro antibacterial effect against S. a. S18713 by using gradient plate test
Staphylococcus aureus [31] = assay: In vitro antibacterial effect against S. a. UC-76 by using gradient plate test
Shigella sonnei [32] = assay: In vitro antibacterial effect against S. s C-10 by using gradient plate test
Enterococcus faecalis [33] = assay: In vitro antibacterial effect against S. f MGH-2
Pseudomonas aeruginosa [34] = assay: In vitro antibacterial effect against P.a 28 by using gradient plate test

SMILES | MST (Mus musculus [1]) [days] | MST (Mus musculus [2]) [days] | MST (Mus musculus [3]) [days] | MST (Mus musculus [4]) [days] | MST (Mus musculus [9]) [days] | MST (Mus musculus [10]) [days] | MST (Mus musculus [11]) [days] | MIC (Enterococcus faecalis [15]) [µg/mL] | MIC [16] [µg/mL] | MIC (Escherichia coli [17]) [µg/mL] | MIC (Pseudomonas aeruginosa [18]) [µg/mL] | MIC (Staphylococcus aureus [19]) [µg/mL] | MIC (Shigella sonnei [20]) [µg/mL] | MIC (Staphylococcus aureus [21]) [µg/mL] | further results
COc1ccc2ccccc2c1CN(C)c1cnc2nc(N)nc(N)c2n1 | 0.2 | 0.2 | 0.2 |  |  |  |  |  |  |  |  |  |  |  | 
CN(Cc1ccc(Cl)cc1)c1cnc2nc(N)nc(N)c2n1 |  |  |  | 4.3 |  |  |  |  |  |  |  |  |  |  | MST (Mus musculus [5]): 4 days; MST (Mus musculus [6]): 5 days; MST (Mus musculus [7]): 7 days; MST (Mus musculus [8]): 3 days
CC1(C)N=C(N)N=C(N)N1c1ccc(Cl)cc1.Cl [CHLORCYCLOGUANIL HYDROCHLORIDE] | 7.9 | 2 | 3 |  | 1 | 5 | 5 |  |  |  |  |  |  |  | 
Nc1nc(N)c2nc(N3CCCC3c3ccc(Cl)cc3)cnc2n1 (stereo not drawn) | 10.1 |  |  | 7.9 | 12.1 |  |  |  |  |  |  |  |  |  | MST (Mus musculus [12]): 2 days; MST (Mus musculus [13]): 3 days; MST (Mus musculus [14]): 3 days
CN(CCc1ccccc1)c1cnc2nc(N)nc(N)c2n1 | 0.1 | 0.1 | 1.7 |  | 0.1 | 3.9 | 0.7 | < 0.25 | > 25 | > 25 | > 25 | < 0.25 | > 25 | < 0.25 | 
CN(Cc1c2ccccc2cc2ccccc12)c1cnc2nc(N)nc(N)c2n1 | 0.1 | 0.1 | 1.3 |  |  |  |  |  |  |  |  |  |  |  | 
Nc1nc(N)c2nc(N3CCCCC3)cnc2n1 | 0.3 | 0.3 | 0.9 |  |  |  |  |  |  |  |  |  |  |  | 
CN(Cc1ccc2c(c1)Cc1ccccc1-2)c1cnc2nc(N)nc(N)c2n1 | 6.3 | 2 | 5 | 3.5 | 8.1 |  | 5 | < 0.25 | 5 (≈ 13.5 µM) | > 25 | > 25 | < 0.25 | > 25 | < 0.25 | 
CN(Cc1cccc(C(F)(F)F)c1)c1cnc2nc(N)nc(N)c2n1 | 12.2 |  |  | 8.8 | 15.4 |  |  | < 0.25 | 10 (≈ 28.6 µM) | > 25 | > 25 | < 0.25 | > 25 | < 0.25 | MST (Mus musculus [6]): 5 days
CN(Cc1cccc2ccccc12)c1cnc2nc(N)nc(N)c2n1 | 5 |  |  | 4 |  |  |  | < 0.25 | > 25 | > 25 | > 25 | < 0.25 | > 25 | < 0.25 | MST (Mus musculus [22]): 10 days; MST (Mus musculus [23]): 10 days; MST (Mus musculus [24]): 5 days
CN(Cc1ccc2ccccc2c1)c1cnc2nc(N)nc(N)c2n1 |  |  |  | 5.9 |  |  |  | < 0.25 | > 25 | > 25 | > 25 | < 0.25 | > 25 | < 0.25 | MST (Mus musculus [25]): 2 days; MST (Mus musculus [22]): 10 days; MST (Mus musculus [23]): 10 days; MST (Mus musculus [24]): 5 days
Nc1nc(N)c2nc(N3CCc4ccccc4C3)cnc2n1 |  |  |  |  | 0.1 | 0.5 | 0.3 |  |  |  |  |  |  |  | 
CN(Cc1ccc(Cl)c(Cl)c1)c1ccc2nc(N)nc(N)c2c1 |  |  |  | 8.7 |  |  |  |  |  |  |  |  |  |  | MST (Mus musculus [23]): 10 days; MST (Mus musculus [26]): 8 days; MST (Mus musculus [27]): 10 days
Nc1nc(N)c2nc(N3CCC(c4ccccc4)CC3)cnc2n1 |  |  |  |  | 0.1 | 0.1 | 0.1 | < 0.25 | 10 (≈ 31.1 µM) | > 25 | > 25 | > 0.25 | > 25 | > 0.25 | 
COc1ccc(CN(C)c2cnc3nc(N)nc(N)c3n2)c2ccccc12 | 6.5 | 5 | 5 |  | 5 | 5 | 5 | < 0.25 | 2.5 (≈ 6.92 µM) | > 25 | > 25 | < 0.25 | > 25 | < 0.25 | 
CN(Cc1ccccc1)c1cnc2nc(N)nc(N)c2n1 |  |  |  |  | 0.1 | 0.3 | 0.1 | < 0.25 | 10 (≈ 35.5 µM) |  | > 25 | < 0.25 | > 25 | < 0.25 | MIC (Escherichia coli [28]): 10 µg/mL (≈ 35.5 µM)
CN(Cc1ccc(F)cc1)c1cnc2nc(N)nc(N)c2n1 | 8.5 |  |  |  |  |  |  | < 0.25 | 2.5 (≈ 8.35 µM) |  | > 25 | < 0.25 | > 25 | < 0.25 | MST (Mus musculus [29]): 8 days; MIC (Escherichia coli [28]): > 25 µg/mL; MST (Mus musculus [22]): 10 days
CN(Cc1cc2ccccc2c2ccccc12)c1cnc2nc(N)nc(N)c2n1 |  |  |  |  |  |  |  |  |  |  |  |  |  |  | MIC (Staphylococcus aureus [30]): < 0.25 µg/mL; MIC (Staphylococcus aureus [31]): < 0.25 µg/mL; MIC (Escherichia coli [28]): > 25 µg/mL; MIC (Shigella sonnei [32]): > 25 µg/mL; MIC (Enterococcus faecalis [33]): < 0.25 µg/mL; MIC (Pseudomonas aeruginosa [34]): > 25 µg/mL
